# Like-named read-outs stand apart in the source and are kept apart here.
# Columns and labels:
# [1] = biological target: T1, JMJD2A tudor domain (Homo sapiens, UniProt O75164); assay: ITC binding to JMJD2A tudor domain; conditions: 5–7 independent experiments
# T1 construct: the PHD zinc fingers of JARID1A, BPTF, TAF3 and the tudor domains of the Royal family of SGF29 and JMJD2A; 6xHis (cleaved yes); made in house; host or cells: Escherichia coli Rosetta BL21 DE3 pLysS
# T1 sequence (O75164 897-1011 limits assumed): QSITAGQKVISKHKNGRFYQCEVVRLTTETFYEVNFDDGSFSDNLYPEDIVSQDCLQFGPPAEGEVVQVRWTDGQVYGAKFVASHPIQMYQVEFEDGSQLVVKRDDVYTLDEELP
# Description: (§1) We use isothermal titration calorimetry (ITC) to obtain full thermodynamic descriptions for binding of H3K4me3, H3C4me3 and H3G4 peptides to five representative reader proteins that specifically recognize H3K4me3 (the PHD zinc fingers of JARID1A, BPTF, TAF3 and the tudor domains of the Royal family of SGF29 and JMJD2A) (Table 1 and Fig. 1b,c)[19][20][21][22][23]. The five reader pockets are different in the aromatic cage composition and architecture, which allows us to examine the effect of individual constitution of the aromatic cage on binding differences.
# (§2) Reader proteins were prepared and purified following the previously reported procedure. Briefly, the reader domains of BPTF, JMJD2A, JARID1A, TAF3 and SGF29 were expressed in Escherichia coli Rosetta BL21 DE3 pLysS hosts, using Terrific Broth medium. The bacteria were cultured to OD600 ∼0.6 at 37 °C after which they were induced with 0.5 mM isopropyl-b-D-thiogalactoside overnight at 16 °C. […]
# (§3) Concentrations of histone peptides were measured by ultraviolet spectroscopy at 205 nm, following the previously reported method. All histone peptides were titrated to the same batch of reader proteins. […] Heats of dilution for histone peptides were determined in control experiments, and were subtracted from the titration binding data before curve fitting. […] For each reader–histone system, 5–7 independent ITC experiments were carried out. […]
# [2] = biological target: T2, TAF3 PHD domain (Homo sapiens, UniProt Q5VWG9); assay: ITC binding to TAF3 PHD domain; conditions: 5–7 independent experiments
# T2 sequence (Q5VWG9 857-924): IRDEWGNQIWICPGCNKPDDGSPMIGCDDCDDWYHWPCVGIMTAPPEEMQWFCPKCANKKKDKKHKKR
# Description: as §1
# (§4) Reader proteins were prepared and purified following the previously reported procedure. Briefly, the reader domains of BPTF, JMJD2A, JARID1A, TAF3 and SGF29 were expressed in Escherichia coli Rosetta BL21 DE3 pLysS hosts, using Terrific Broth medium. The bacteria were cultured to OD600 ∼0.6 at 37 °C after which they were induced with 0.5 mM isopropyl-b-D-thiogalactoside overnight at 16 °C. Proteins were purified using Ni-NTA beads for 6xHis-tagged proteins or glutathione sepharose beads for GST tagged proteins, respectively. After purification, the 6xHis tag was cleaved from JMJD2A and SGF29 using TEV-protease and the GST tag was cleaved from TAF3 using thrombin. Protein were purified by size-exclusion chromatography using a Superdex 75 column (GE Healthcare). SGF29 was eluted in 25 mM Tris, 50 mM NaCl, 1 mM dithiothreitol at pH 7.5; JMJD2A and TAF3 were eluted in 50 mM Tris at pH 7.5; BPTF and JARID1A were eluted in 50 mM Tris, 20 mM NaCl at pH 7.5. All proteins were made filter sterile and stored at 4 °C until further use.
# as §3
# [3] = biological target: T3, BPTF PHD zinc finger (Homo sapiens, UniProt Q12830); assay: ITC binding to BPTF PHD zinc finger; conditions: ITC (Auto-iTC200), one set of sites; 350–600 μM 10-mer peptide into 25–40 μM protein (eluted in 50 mM Tris, 20 mM NaCl, pH 7.5); 5–7 independent experiments; stoichiometry n=0.95–1.05
# T3 construct: the PHD zinc fingers of JARID1A, BPTF, TAF3 and the tudor domains of the Royal family of SGF29 and JMJD2A; made in house; host or cells: Escherichia coli Rosetta BL21 DE3 pLysS
# Description: as §1, §2, §3
# [4] = biological target: T4, JARID1A PHD3 domain (Homo sapiens, UniProt P29375); assay: ITC binding to JARID1A PHD3 domain
# T4 construct: made in house; host or cells: Escherichia coli Rosetta BL21 DE3 pLysS
# T4 sequence (P29375 1607-1661 limits assumed): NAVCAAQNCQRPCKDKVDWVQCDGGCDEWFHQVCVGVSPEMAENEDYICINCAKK
# Description: as §1, §4, §3
# [5] = biological target: T5, SGF29 tandem tudor domain (Homo sapiens, UniProt Q96ES7); assay: ITC binding to SGF29 tandem tudor domain; conditions: ITC (Auto-iTC200), one set of sites; 350–600 μM 10-mer peptide into 25–40 μM protein (eluted in 25 mM Tris, 50 mM NaCl, 1 mM dithiothreitol, pH 7.5); 5–7 independent experiments; stoichiometry n=0.95–1.05
# T5 construct: 6xHis (cleaved yes); made in house; host or cells: Escherichia coli Rosetta BL21 DE3 pLysS
# T5 sequence (Q96ES7 115-293): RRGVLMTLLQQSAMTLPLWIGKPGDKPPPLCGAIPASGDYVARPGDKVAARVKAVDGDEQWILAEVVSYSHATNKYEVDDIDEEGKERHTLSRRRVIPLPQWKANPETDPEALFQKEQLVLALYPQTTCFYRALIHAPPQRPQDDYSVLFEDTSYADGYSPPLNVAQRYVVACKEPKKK
# Description: as §1, §2, §3
# [6] = ITC (Auto-iTC200), one set of sites, 350–600 μM 10-mer peptide into 25–40 μM protein (eluted in 50 mM Tris, pH 7.5), stoichiometry n=0.95–1.05, read-out: Kd
# [7] = ITC (Auto-iTC200), one set of sites, 350–600 μM 10-mer peptide into 25–40 μM protein (eluted in 50 mM Tris, 20 mM NaCl, pH 7.5), 5–7 independent experiments, stoichiometry n=0.95–1.05, read-out: Kd
"Kd ([1]; ITC, 3 mM H3C4me3 into 200 μM JMJD2A) [nM]","Kd [2, 6] [nM]",Kd [3] [nM],"Kd [4, 7] [nM]",Kd [5] [nM],"Kd ([1]; ITC (Auto-iTC200), one set of sites, 350–600 μM 10-mer peptide into 25–40 μM protein (eluted in 50 mM Tris, pH 7.5), stoichiometry n=0.95–1.05) [nM]",SMILES,"Kd ([2]; ITC, 3 mM H3G4 into 200 μM TAF3) [nM]",Kd [4] [nM]
16000,790,760,340,1400,–,C[C@H](N)C(=O)N[C@@H](CCCNC(=N)N)C(=O)N[C@H](C(=O)N[C@@H](CCCCC(C)(C)C)C(=O)N[C@@H](CCC(N)=O)C(=O)N[C@H](C(=O)N[C@@H](C)C(=O)N[C@@H](CCCNC(=N)N)C(=O)N[C@@H](CCCCN)C(=O)N[C@@H](CO)C(=O)O)[C@@H](C)O)[C@@H](C)O [H3C4me3],–,–
–,–,–,–,–,–,C[C@H](N)C(=O)N[C@@H](CCCNC(=N)N)C(=O)N[C@H](C(=O)NCC(=O)N[C@@H](CCC(N)=O)C(=O)N[C@H](C(=O)N[C@@H](C)C(=O)N[C@@H](CCCNC(=N)N)C(=O)N[C@@H](CCCCN)C(=O)N[C@@H](CO)C(=O)O)[C@@H](C)O)[C@@H](C)O [H3G4],36000,88000
–,24,490,94,1700,940,C[C@H](N)C(=O)N[C@@H](CCCNC(=N)N)C(=O)N[C@H](C(=O)N[C@@H](CCCC[N+](C)(C)C)C(=O)N[C@@H](CCC(N)=O)C(=O)N[C@H](C(=O)N[C@@H](C)C(=O)N[C@@H](CCCNC(=N)N)C(=O)N[C@@H](CCCCN)C(=O)N[C@@H](CO)C(=O)O)[C@@H](C)O)[C@@H](C)O [H3K4me3],–,–

# — publication PMC4673829 (Nature Communications, 2015)
